Values of other authors as cited in PubChem BioAssay AID1259409 (Chemical Carcinogenesis Research Information System (CCRIS), 2018).
Where a SMILES comes first, the peptide text is derived from it. [ ]: non-standard residue; d: D form. The star is where a group is joined. Sta = CC(C)C[C@H](N)[C@@H](O)CC(=O)O; Isovaleryl = CC(C)CC(=O)*

Tested on: rodent chemically induced tumor inhibition, incidence and multiplicity
Assay: CCRIS tumor inhibitor studies

C[C@H]1[C@H](C)CC[C@]2(C(=O)O)CC[C@]3(C)C(=CC[C@@H]4[C@@]5(C)CC[C@H](O)C(C)(C)[C@@H]5CC[C@]43C)[C@H]12
tumour outcome (control, treated, inhibition, significance) (Carcinogen: 7,12-DIMETHYLBENZ[A]ANTHRACENE : 57-97-6, Dose [Inhibitor]: 0, 2 UMOL IN 200 µL ACETONE 2/WK FOR 20 WK BEGINNING 1 WK POST CARCINOGEN DOSE (STUDY DURATION: 20 WK), Route [Inhibitor]: DERMAL, Species: MOUSE, Strain/Sex: CD-1/FEMALE, Target Tissue: Type of Lesion: SKIN: TUMOR, Dose [Carcinogen]: 200 NMOL IN 200 µL ACETONE ONCE, Promoter: 12-O-TETRADECANOYLPHORBOL-13-ACETATE, 16561-29-8): 93%, 62%, 33%, not significant
tumour outcome (control, treated, inhibition, significance) (Carcinogen: 7,12-DIMETHYLBENZ[A]ANTHRACENE, 57-97-6, Dose [Inhibitor]: 0, 0.1 UMOL IN 200 µL ACETONE 2/WK FOR 18 WK BEGINNING 1 WK POST CARCINOGEN DOSE (STUDY DURATION: 18 WK), Route [Inhibitor]: DERMAL, Species: MOUSE, Strain/Sex: CD-1/FEMALE, Target Tissue: Type of Lesion: SKIN: TUMOR, Dose [Carcinogen]: 200 NMOL IN 200 µL ACETONE ONCE, Promoter: 12-O-TETRADECANOYLPHORBOL-13-ACETATE, 16561-29-8): 87%, 87%, 0%, not significant
tumour outcome (control, treated, inhibition, significance) (Carcinogen: 7,12-DIMETHYLBENZ[A]ANTHRACENE, 57-97-6, Dose [Inhibitor]: 0, 0.3 UMOL IN 200 µL ACETONE 2/WK FOR 18 WK BEGINNING 1 WK POST CARCINOGEN DOSE (STUDY DURATION: 18 WK), Route [Inhibitor]: DERMAL, Species: MOUSE, Strain/Sex: CD-1/FEMALE, Target Tissue: Type of Lesion: SKIN: TUMOR, Dose [Carcinogen]: 200 NMOL IN 200 µL ACETONE ONCE, Promoter: 12-O-TETRADECANOYLPHORBOL-13-ACETATE, 16561-29-8): 87%, 93%, -7%, not significant
tumour outcome (control, treated, inhibition, significance) (Carcinogen: 7,12-DIMETHYLBENZ[A]ANTHRACENE, 57-97-6, Dose [Inhibitor]: 0, 1 UMOL IN 200 µL ACETONE 2/WK FOR 18 WK BEGINNING 1 WK POST CARCINOGEN DOSE (STUDY DURATION: 18 WK), Route [Inhibitor]: DERMAL, Species: MOUSE, Strain/Sex: CD-1/FEMALE, Target Tissue: Type of Lesion: SKIN: TUMOR, Dose [Carcinogen]: 200 NMOL IN 200 µL ACETONE ONCE, Promoter: 12-O-TETRADECANOYLPHORBOL-13-ACETATE, 16561-29-8): 87%, 77%, 11%, not significant
tumour outcome (control, treated, inhibition, significance) (Carcinogen: 7,12-DIMETHYLBENZ[A]ANTHRACENE, 57-97-6, Dose [Inhibitor]: 0, 1 UMOL IN 200 µL ACETONE 2/WK FOR 20 WK BEGINNING 1 WK POST CARCINOGEN DOSE (STUDY DURATION: 20 WK), Route [Inhibitor]: DERMAL, Species: (30,30)/(30,30), Strain/Sex: CD-1/FEMALE, Target Tissue: Type of Lesion: SKIN: TUMOR, Dose [Carcinogen]: 200 NMOL IN 200 µL ACETONE ONCE, Promoter: 12-O-TETRADECANOYLPHORBOL-13-ACETATE, 16561-29-8): 93%, 80%, 14%, not significant
tumour outcome (control, treated, inhibition, significance) (Carcinogen: 7,12-DIMETHYLBENZ[A]ANTHRACENE, 57-97-6, Dose [Inhibitor]: 0, 2 UMOL IN 200 µL ACETONE 2/WK FOR 18 WK BEGINNING 1 WK POST CARCINOGEN DOSE (STUDY DURATION: 18 WK), Route [Inhibitor]: DERMAL, Species: MOUSE, Strain/Sex: CD-1/FEMALE, Target Tissue: Type of Lesion: SKIN: TUMOR, Dose [Carcinogen]: 200 NMOL IN 200 µL ACETONE ONCE, Promoter: 12-O-TETRADECANOYLPHORBOL-13-ACETATE, 16561-29-8): 87%, 60%, 31%, not significant

NCc1cc(=O)[nH]o1
tumour outcome (control, treated, inhibition, significance) (Carcinogen: AZOXYMETHANE, 25843-45-2, Dose [Inhibitor]: 0, 0.5 MG/KG IN 2 ML/KG 0.9% SALINE 1/2 D CONCURRENTLY WITH CARCINOGEN AND CONTINUING FOR STUDY DURATION (STUDY DURATION, Route [Inhibitor]: INTRAPERITONEAL, Species: RAT, Strain/Sex: WISTAR/MALE, Target Tissue: Type of Lesion: COLON: ADENOMA, Dose [Carcinogen]: 7.4 MG/KG IN 0.9% SALINE 1/WK FOR 10 WK, Promoter: NONE USED): 3/17 (18%), 8/19 (42%), -133%, not significant
tumour outcome (control, treated, inhibition, significance) (Carcinogen: N-METHYL-N'-NITRO-N-NITROSOGUANIDINE, 70-25-7, Dose [Inhibitor]: 0, 0.25 MG/KG IN NACL INJECTED 1/2 D FOR DURATION OF STUDY BEGINNING 1 WK POST CARCINOGEN DOSE (STUDY DURATION: 52 WK), Route [Inhibitor]: INTRAPERITONEAL, Species: RAT, Strain/Sex: WISTAR/MALE, Target Tissue: Type of Lesion: STOMACH: ADENOCARCINOMA, Dose [Carcinogen]: 50 UG/ML IN DRINKING WATER FOR 25 WK, Promoter: NONE USED): 13/19 (68%), 12/20 (60%), 12%, not significant
tumour outcome (control, treated, inhibition, significance) (Carcinogen: N-METHYL-N'-NITRO-N-NITROSOGUANIDINE, 70-25-7, Dose [Inhibitor]: 0, 0.5 MG/KG BW 1/2 D FOR DURATION OF STUDY BEGINNING 1 WK POST LAST CARCINOGEN DOSE (STUDY DURATION: 52 WK), Route [Inhibitor]: INTRAPERITONEAL, Species: RAT, Strain/Sex: SHR/MALE, Target Tissue: Type of Lesion: STOMACH: ADENOCARCINOMA, Dose [Carcinogen]: 25 UG/ML IN DRINKING WATER FOR 25 WK, Promoter: NONE USED): 10/20 (50%), 3/20 (15%), 70%, p<0.05
tumour outcome (control, treated, inhibition, significance) (Carcinogen: N-METHYL-N'-NITRO-N-NITROSOGUANIDINE, 70-25-7, Dose [Inhibitor]: 0, 0.5 MG/KG BW 1/2 D FOR DURATION OF STUDY BEGINNING 1 WK POST LAST CARCINOGEN DOSE (STUDY DURATION: 52 WK), Route [Inhibitor]: INTRAPERITONEAL, Species: RAT, Strain/Sex: WISTAR/MALE, Target Tissue: Type of Lesion: STOMACH: ADENOCARCINOMA, Dose [Carcinogen]: 25 UG/ML IN DRINKING WATER FOR 25 WK, Promoter: NONE USED): 1/14 (7%), 0/15 (0%), 100%, not significant
tumour outcome (control, treated, inhibition, significance) (Carcinogen: N-METHYL-N'-NITRO-N-NITROSOGUANIDINE, 70-25-7, Dose [Inhibitor]: 0, 0.5 MG/KG IN NACL INJECTED 1/2 D FOR DURATION OF STUDY BEGINNING 1 WK POST CARCINOGEN DOSE (STUDY DURATION: 52 WK), Route [Inhibitor]: INTRAPERITONEAL, Species: RAT, Strain/Sex: WISTAR/MALE, Target Tissue: Type of Lesion: STOMACH: ADENOCARCINOMA, Dose [Carcinogen]: 50 UG/ML IN DRINKING WATER FOR 25 WK, Promoter: NONE USED): 13/19 (68%), 12/18 (67%), 2%, not calculated

CC(C)CC(=O)N[C@H](C(=O)N[C@H](C(=O)N[C@@H](CC(C)C)[C@@H](O)CC(=O)N[C@@H](C)C(=O)N[C@@H](CC(C)C)[C@@H](O)CC(=O)O)C(C)C)C(C)C (Isovaleryl-VV[Sta]A[Sta]-OH)
tumour outcome (control, treated, inhibition, significance) (Carcinogen: 1,2,3,4,5,6-HEXACHLOROCYCLOHEXANE, 319-84-6, Dose [Inhibitor]: 0.1% IN DIET FOR 12 WK FOLLOWING CARCINOGEN TREATMENT REGIMEN (STUDY DURATION: 48 WK), Route [Inhibitor]: ORAL, Species: MOUSE, Strain/Sex: DDY/MALE, Target Tissue: Type of Lesion: LIVER: NODULAR HYPERPLASIA, Dose [Carcinogen]: 500 PPM IN DIET FOR 24 WK, Promoter: NONE USED): 1/13 (8%), 1/12 (8%), 0%, not significant
tumour outcome (control, treated, inhibition, significance) (Carcinogen: N-BUTYL-N-(4-HYDROXY-BUTYL)NITROSAMINE, 3817-11-6, Dose [Inhibitor]: 0.1% IN DIET FOR 32 WK FOLLOWING CARCINOGEN TREATMENT REGIMEN (STUDY DURATION: 40 WK), Route [Inhibitor]: ORAL, Species: MOUSE, Strain/Sex: ICR/MALE, Target Tissue: Type of Lesion: URINARY BLADDER: TUMOR, Dose [Carcinogen]: 0.05% IN DRINKING WATER FOR FIRST 8 WK, Promoter: NONE USED): 6/13 (46%), 8/10 (80%), -74%, not calculated

Cn1cnc2[nH]c(=O)[nH]c(=O)c21
tumour outcome (control, treated, inhibition, significance) (Carcinogen: URETHANE, 51-79-6, Dose [Inhibitor]: 0.05 UMOL/G BW GIVEN AT 6 HR INTERVALS DURING THE PERIOD OF 0 TO 36 HR AFTER CARCINOGEN TREATMENT FOLLOWED BY 5 MO OBSER, Route [Inhibitor]: INTRAPERITONEAL, Species: MOUSE, Strain/Sex: ICR/FEMALE, Target Tissue: Type of Lesion: LUNG: PAPILLARY ADENOMA, Dose [Carcinogen]: 0.1 MG/G BW ONCE, Promoter: NONE USED): 31/59 (53%), 18/48 (38%), 28%, p 0.12
tumour outcome (control, treated, inhibition, significance) (Carcinogen: URETHANE, 51-79-6, Dose [Inhibitor]: 0.25 UMOL/G BW 1/D DURING THE PERIOD OF 5 TO 9 D AFTER CARCINOGEN TREATMENT FOLLOWED BY OBSERVATION PERIOD UNTIL END OF, Route [Inhibitor]: INTRAPERITONEAL, Species: MOUSE, Strain/Sex: ICR/FEMALE, Target Tissue: Type of Lesion: LUNG: PAPILLARY ADENOMA, Dose [Carcinogen]: 1 MG/G BW ONCE, Promoter: NONE USED): 49/53 (93%), 43/62 (69%), 26%, p<0.01

CC1=C(/C=C/C(C)=C/C=C/C(C)=C\C(=O)Nc2ccc(O)cc2)C(C)(C)CCC1
tumour outcome (control, treated, inhibition, significance) (Carcinogen: N-BUTYL-N-(4-HYDROXYBUTYL)NITROSAMINE, 3817-11-6, Dose [Inhibitor]: 1.5 MMOL/KG DIET DAILY FOR 153 D STARTING ONE WK AFTER THE FINAL CARCINOGEN DOSE (STUDY DURATION: 210 D), Route [Inhibitor]: ORAL, Species: MOUSE, Strain/Sex: BDF/MALE, Target Tissue: Type of Lesion: URINARY BLADDER: TRANSITIONAL CELL CARCINOMA, Dose [Carcinogen]: 7.5 MG 1/WK FOR 8 WK, Promoter: NONE USED): 35/99 (35%), 21/99 (21%), 40%, p<0.05
tumour outcome (control, treated, inhibition, significance) (Carcinogen: N-BUTYL-N-(4-HYDROXYBUTYL)NITROSAMINE, 3817-11-6, Dose [Inhibitor]: 1.5 MMOL/KG/D IN DIET FOR 153 D STARTING 1 WK POST CARCINOGEN TREATMENT (STUDY DURATION: 210 D), Route [Inhibitor]: ORAL, Species: MOUSE, Strain/Sex: BDF/MALE, Target Tissue: Type of Lesion: URINARY BLADDER: TRANSITIONAL CELL CARCINOMA, Dose [Carcinogen]: 7.5 MG 1/WK FOR 8 WK, Promoter: NONE USED): 35/99 (35%), 21/99 (21%), 40%, p<0.05
